Test results reported in the NIST ThermoML archive (doi:10.1021/je400402n).
± gives the expanded uncertainty stated by the source.

Conditions: 101 kPa, Liquid, HP 4194A impedance-gain phase analyzer

C[S+](C)[O-] [dimethyl sulfoxide]
Conditions | electrical conductivity [S/m]
293.15 K | 0.000188 ± 3.8e-06
295.15 K | 0.000201 ± 4e-06
297.15 K | 0.000211 ± 4.2e-06
299.15 K | 0.000225 ± 4.5e-06
301.15 K | 0.000236 ± 4.7e-06
303.15 K | 0.000248 ± 5e-06
305.15 K | 0.000262 ± 5.2e-06
307.15 K | 0.000274 ± 5.5e-06
309.15 K | 0.000287 ± 5.7e-06
311.15 K | 0.0003 ± 6e-06
313.15 K | 0.000315 ± 6.3e-06
315.15 K | 0.000328 ± 6.6e-06
317.15 K | 0.000341 ± 6.8e-06
319.15 K | 0.000355 ± 7.1e-06
321.15 K | 0.000369 ± 7.4e-06
323.15 K | 0.000384 ± 7.7e-06
325.15 K | 0.000399 ± 8e-06
327.15 K | 0.000419 ± 8.4e-06
329.15 K | 0.000437 ± 8.7e-06
331.15 K | 0.000455 ± 9.1e-06
333.15 K | 0.000474 ± 9.5e-06
